Data reported in patent US20240252677A1, “ONE-COMPONENT DELIVERY SYSTEM FOR NUCLEIC ACIDS” (The Trustees of the University of Pennsylvania, priority 2021, published 2024).

Legend:
[1] = Dimensions (size, PDI) of DNPs co-assembled from IAJDs and Luc-mRNA by DLS; format: physicochemical
Protocol: Dynamic Light Scattering (DLS) for the DNPs was performed in buffer with a Malvern Instruments particle sizer (Zetasizer Nano S, Malvern Instruments, UK) equipped with 4 mW He—Ne laser 633 nm and avalanche photodiode positioned at […] to the beam and temperature-controlled cuvette holder. Instrument parameters were determined automatically along with measurement times.
Formulation of DNPs Containing mRNA-Luc: IAJDs were dissolved in ethanol with various initial concentrations (5-160 mg/mL). Nucleoside-modified mRNA encoding firefly luciferase (mRNA-Luc) was dissolved in water with various initial concentrations (1-4 mg/mL). 12.5 μL of mRNA solution was placed into a clean RNAs free eppendorf (1.5 mL) and mixed with 463 μL of citrate buffer (10 mM, pH 3.0)/acetate buffer (10 mM). For encapsulation of mRNA into IAJDs, 25 μL of IAJDs of the ethanol stock solution was rapidly injected into mRNA solution in citrate or acetate buffer followed by vortex for 5 seconds.
(§1) Dynamic Light Scattering (DLS) for the sizes and polydispersities of DNPs was performed on a Malvern Instruments particle sizer (Zetasizer Nano S, Malvern Instruments, UK) equipped with 4 mW He—Ne laser 633 nm and avalanche photodiode positioned at 1750 to the beam and temperature-controlled cuvette holder. Instrument parameters were determined automatically along with measurement times. Sample solution (0.4 mL) was placed in a semi-micro cuvette (1.6 mL, polystyrene, 10×10×45 mm, manufactured by Greiner Bio-One) and the measurements were performed at 23° C.
Formulation of DNPs obtained by co-assembly of IAJDs and Luc-mRNA was performed as follows. IAJDs were dissolved in ethanol with an initial concentration of 80 mg/mL. Nucleoside-modified mRNA encoding firefly luciferase (Luc-mRNA) was dissolved in UltraPure DNase/RNase-free distilled water with an initial concentration of 4.0 mg/mL. 12.5 μL of Luc-mRNA solution was placed into a clean RNAs free eppendorf (1.5 mL) and 463 μL acetate buffer (10 mM, pH 4.0) was added. Then, 25 μL of IAJD in the ethanol stock solution was rapidly injected into the Luc-mRNA solution in acetate buffer followed by vortex for 5 seconds.
as §1, with “dimensions (sizes” for “sizes”, “polydispersities)” for “polydispersities”, “175°” for “1750”, “set up” for “determined”, “(c.a. 0.4” for “(0.4”, “mm,” for “mm, manufactured by”
Formulation of DNPs Co-assembled from IAJDs and Luc-mRNA: nucleoside-modified mRNA encoding firefly luciferase (Luc-mRNA) was dissolved in UltraPure DNase/RNase-free distilled water with an initial concentration of 4.0 mg/mL. IAJD molecules were dissolved in ethanol with an initial concentration of 80 mg/mL. 12.5 μL of Luc-mRNA solution was taken and placed into a clean RNAs free eppendorf (1.5 mL). Then 463 μL of acetate buffer (10 mM, pH 4.0) was added. Afterwards, 25 μL of IAJD in the ethanol stock solution was taken and rapidly injected into the above Luc-mRNA solution in acetate buffer followed by vortex for 5 seconds.

[2] = pKa measurements of individual IAJD molecules by titration; format: physicochemical; settings: ethanol saturated with NaCl, titrated with 0.1 M aqueous HCl, titration
Protocol: pKa measurements of individual IAJD Molecules was performed as follows. IAJD Molecules were first dissolved in ethanol (Sat. with NaCl) at a concentration of 1.5 mg/mL and the solution volume was 3 mL.
Then 0.1 M HCl solution was added to the above ethanol solution with an increment of 7.5 μL. The resulting pH after each addition of HCl solution was measured by an Thermo Scientific Orion Star A121 meter with Thermo Scientific Orion 8220BNWP pH probe. pKa was determined using the half equivalence point titration.

spleen = assay: In vivo mRNA delivery, IVIS imaging of organs: spleen; set-up: species or system mice; settings: Table 14; imaging 5 h after injection
Protocol: The exposure time was 1 min.
Tissue luminescence signal was measured on the IVIS imaging system using an exposure time of 60 seconds using medium binning (binning=8) to ensure that the signal obtained was within operative detection range. […] Bioluminescence imaging was performed as described above.
Tissue luminescence signal was measured on the IVIS imaging system using a certain exposure time (60, 30 or 15 seconds) and medium binning (binning=8) to ensure that the signal obtained was within operative detection range.

[3] = Stability of DNPs by DLS after storage at 5° C.; format: physicochemical; set-up: key to Original size distribution type (DLS curve) / Size distribution type (DLS curve): U: DLS curve showed unimodal size distribution; B: DLS curve showed bimodal size distribution; M: DLS curve showed multimodal size distribution; settings: for pH Sample: DNPs: IAJD 4.0 mg/mL + Luc-mRNA 0.1 mg/mL, injection in acetate buffer pH 4.00; for PDI / Size (d, nm) / Original size distribution type (DLS curve): IAJD 4.0 mg/mL + Luc-mRNA 0.1 mg/mL; for PDI / Size (d, nm): acetate buffer; for Original size distribution type (DLS curve): before storage, acetate buffer pH 4.00
Protocol: The stability of the DNPs as assayed by DLS. All the samples are prepared in acetate buffer. The stabilities of the constructs were ranked: Excellent (in bold)—the original sizes and distribution remains almost the same after storage; Good—the original relatively big sizes became smaller or broad size distribution became narrower; Not stable—the original relatively big sizes or broad size distribution remained almost the similar level, or the original relatively small sizes became bigger or narrow size distribution became broader.

[4] = Acetate buffer 10 mM pH 4.0, CIAJD 4 mg/mL, CLuc-mRNA 0.05 mg/mL
[5] = Acetate buffer 10 mM pH 5.2, CIAJD 4 mg/mL, CLuc-mRNA 0.10 mg/mL
[6] = Citrate buffer 10 mM pH 3.0, CIAJD 4 mg/mL, CLuc-mRNA 0.05 mg/mL
[7] = DNP for in vivo, CIAJD 4.0 mg/mL, CLuc-mRNA 0.1 mg/mL, acetate buffer pH 5.2
[8] = Table 15, individual IAJD molecule
[9] = Table 12, DNPs, IAJD 4 mg/mL + Luc-mRNA 0.10 mg/mL, acetate buffer 10 mM pH 4.0
[10] = Table 13, DNPs, IAJD 4 mg/mL + Luc-mRNA 0.10 mg/mL, acetate buffer pH 4.0
[11] = Table 14, DNPs, IAJD 4 mg/mL + Luc-mRNA 0.10 mg/mL, acetate buffer pH 4.0
[12] = Table 16, DNPs from IAJD 4 mg/mL and Luc-mRNA 0.10 mg/mL by injection in acetate buffer (10 mM, pH 4.0)
[13] = Table 17, DNPs used in vivo, IAJD 4 mg/mL, Luc-mRNA 0.10 mg/mL, acetate pH 4.0
[14] = Acetate buffer 10 mM pH 4.0, CIAJD 4 mg/mL, CLuc-mRNA 0.10 mg/mL
[15] = DNP for in vivo, CIAJD 4.0 mg/mL, CLuc-mRNA 0.1 mg/mL, acetate buffer pH 4.0
[16] = storage time 2 days, CIAJD 4.0 mg/mL, CLuc-mRNA 0.1 mg/mL, acetate buffer pH 4.0

Molecule | pKa [2, 8] | PDI [1, 9] | Size (d, nm) [1, 9] [nm] | PDI [1, 10] | Size (d, nm) [1, 10] [nm] | PDI [1, 11] | Size (d, nm) [1, 11] [nm] | pKa ([2]; individual IAJD molecules) | PDI [1, 12] | Size (d, nm) [1, 12] [nm] | PDI [1, 13] | Size (d, nm) [1, 13] [nm] | pH Sample [3] | Original size distribution type (DLS curve) [3] | Size distribution type (DLS curve) ([3]; after 19 days at 5° C.) | PDI ([3]; after 19 days at 5° C.) | Size (d, nm) ([3]; after 19 days at 5° C.) [nm] | other results
3,5-Bis(dodecyloxy)benzyl 3-(4-methylpiperazin-1-yl)propanoate [IAJD 84] |  |  |  |  |  |  |  |  |  |  |  |  |  |  |  |  |  | PDI [1, 4]: 0.493; Size (d, nm) [1, 4]: 106 nm; PDI [1, 5]: 0.311; Size (d, nm) [1, 5]: 199 nm; PDI [1, 6]: 0.283; Size (d, nm) [1, 6]: 192 nm; PDI [1, 7]: 0.311; Size (d, nm) [1, 7]: 199 nm
CCCCCCCCCCCCOc1cc(COC(=O)CCCN2CCCCC2)cc(OCCCCCCCCCCCC)c1 [IAJD 65, 3,5-Bis(dodecyloxy)benzyl 4-(piperidin-1-yl)butanoate] | 7.4 | 0.249 | 241 | 0.249 | 241 | 0.249 | 241 |  |  |  |  |  |  |  |  |  |  | 
CCCCCCCCCCCCOc1ccc(COC(=O)CCCN2CCN(C)CC2)cc1OCCCCCCCCCCCC [IAJD 78, 3,4-Bis(dodecyloxy)benzyl 4-(4-methylpiperazin-1-yl)butanoate] | 6.46 | 1.000 | 629 | 1.000 | 629 | 1.000 | 629 |  |  |  |  |  |  |  |  |  |  | Organs with luminescence: spleen (weak/strong) (spleen): spleen (weak)
CCCCCCCCCCCCOCC(COCCCCCCCCCCCC)(COCCCCCCCCCCCC)COC(=O)CCCN1CCN(C)CC1 [IAJD 82, 3-(Dodecyloxy)-2,2-bis((dodecyloxy)methyl)propyl 4-(4-methylpiperazin-1-yl)butanoate] | 6.18 | 0.144 | 162 | 0.144 | 162 | 0.144 | 162 |  |  |  |  |  |  |  |  |  |  | Organs with luminescence: spleen (weak/strong) (spleen): Spleen (strong)
CCCCCCCCCCCCOc1cc(COC(=O)c2cc(OCCOCCOCCCC(=O)CCCN3CCCCC3)c(OCCOCCOCCOCc3ccccc3)c(OCCOCCOCCOC(=O)CCCN3CCCCC3)c2)cc(OCCCCCCCCCCCC)c1 [IAJD 110] |  |  |  |  |  |  |  | 7.64 | 0.274 | 111 | 0.274 | 111 | 4.91 | (U) |  |  |  | Size distribution type (DLS curve) ([3]; after 75 days at 5° C.): (U); PDI ([3]; after 75 days at 5° C.): 0.222; Size (d, nm) ([3]; after 75 days at 5° C.): 103 nm
CCCCCCCCCCCCCCOc1cc(COC(=O)c2cc(OCCOCCOCCCC(=O)CCCN3CCCCC3)c(OCCOCCOCCOCc3ccccc3)c(OCCOCCOCCOC(=O)CCCN3CCCCC3)c2)cc(OCCCCCCCCCCC)c1 [IAJD 156] |  |  |  |  |  |  |  | 7.43 | 0.236 | 75 | 0.236 | 75 | 4.82 | (U) | (U) | 0.242 | 78 | 
CCCCCCCCCCCCCCCOc1cc(COC(=O)c2cc(OCCOCCOCCCC(=O)CCCN3CCCCC3)c(OCCOCCOCCOCc3ccccc3)c(OCCOCCOCCOC(=O)CCCN3CCCCC3)c2)cc(OCCCCCCCCCCC)c1 [IAJD 157] |  |  |  |  |  |  |  | 7.42 | 0.238 | 68 | 0.238 | 68 | 4.84 | (U) | (U) | 0.255 | 71 | 
CCCCCCCCCCCCCCCCCOc1cc(COC(=O)c2cc(OCCOCCOCCCC(=O)CCCN3CCCCC3)c(OCCOCCOCCOCc3ccccc3)c(OCCOCCOCCOC(=O)CCCN3CCCCC3)c2)cc(OCCCCCCCCCCC)c1 [IAJD 158] |  |  |  |  |  |  |  | 7.38 | 0.246 | 75 | 0.246 | 75 | 4.83 | (U) | (U) | 0.258 | 77 | 
CCCCCCCCCCCCCCCCCOc1cc(CNC(=O)c2cc(OCCOCCOCCOC(=O)CCCN3CCCCC3)c(OCCCOCOCCOCc3ccccc3)c(OCCOCCOCCOC(=O)CCCN3CCCCC3)c2)cc(OCCCCCCCCCCCCCCCCC)c1 [IAJD 159] |  |  |  |  |  |  |  | 7.4 | 0.218 | 91 | 0.218 | 91 | 4.72 | (U) |  |  |  | Size distribution type (DLS curve) ([3]; after 11 days at 5° C.): (U); PDI ([3]; after 11 days at 5° C.): 0.220; Size (d, nm) ([3]; after 11 days at 5° C.): 93 nm
Diheptyl 5,5′-((5-(((4-(4-methylpiperazin-1-yl)butanoyl)oxy)methyl)-1,3-phenylene)bis(oxy)) dipentanoate [IAJD 85] |  |  |  |  |  |  |  |  |  |  |  |  |  |  |  |  |  | PDI [1, 4]: 0.352; Size (d, nm) [1, 4]: 99 nm; PDI [1, 14]: 0.254; Size (d, nm) [1, 14]: 115 nm; PDI [1, 6]: 0.361; PDI [1, 15]: 0.254; Size (d, nm) [1, 15]: 115 nm; PDI after storage [3, 16]: 0.271; Size (d, nm) after storage [3, 16]: 114 nm
